Measurements as given in patent US8148391B2 (Cephalon, Inc., priority 2006, dated 2012).
Where two headings read alike, the source gives them in different places. Values belong to the compound of their own block, whether it stands above or below them.

Legend:
[1] = molecular target: T1, baculovirus-expressed ALK (Homo sapiens, UniProt Q9UM73); assay: ALK Kinase Assay (ELISA-type, time-resolved fluorescence); assay type: biochemical
T1 construct: host or cells: baculovirus expression system
Summary of the method: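 Wells were coated with phospholipase C-γ at 10 μg/mL in Tris-buffered saline. Adding 30 ng/ml enzyme started the reaction, which ran at 37° C for 15 minutes before Eu-N1 PT66 antibody detection. Percent inhibition versus log10 concentration gave IC50 by variable-slope fit.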

[2] = molecular target: T2, c-Met (cytoplasmic domain) (Homo sapiens, UniProt P08581); assay: c-Met Kinase Assay (same methods as for ALK, with modifications); assay type: biochemical
T2 construct: 10 ng/mL c-Met (cytoplasmic domain, Invitrogen Corporation #PV3143); purchased Invitrogen Corporation PV3143
T2 sequence (P08581 956-1390 limits assumed): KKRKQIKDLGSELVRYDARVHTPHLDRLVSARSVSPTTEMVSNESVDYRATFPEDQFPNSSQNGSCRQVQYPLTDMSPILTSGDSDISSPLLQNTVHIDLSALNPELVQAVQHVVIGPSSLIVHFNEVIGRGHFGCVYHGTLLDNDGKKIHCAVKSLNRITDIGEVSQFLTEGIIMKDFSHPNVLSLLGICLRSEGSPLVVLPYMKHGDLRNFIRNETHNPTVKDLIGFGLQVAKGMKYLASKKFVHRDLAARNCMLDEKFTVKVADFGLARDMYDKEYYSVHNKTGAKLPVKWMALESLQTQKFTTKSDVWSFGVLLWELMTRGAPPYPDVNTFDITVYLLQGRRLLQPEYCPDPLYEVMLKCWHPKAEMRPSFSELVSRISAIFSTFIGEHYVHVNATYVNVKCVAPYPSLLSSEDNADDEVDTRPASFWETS
Summary of the method: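 IC50 values were fitted by variable-slope sigmoidal regression of percent inhibition against log compound concentration. Phosphorylation was read with Eu-N1 PT66 antibody after a 15 min, 37 °C reaction. The reaction was initiated with 10 ng/mL c-Met cytoplasmic domain on wells coated with 10 μg/mL PLC-γ in TBS.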

[3] = ALK kinase inhibition, 1 μM ATP, read-out: ALK Activity
[4] = c-Met kinase inhibition, 1 μM ATP, read-out: cMet Activity
[5] = 1 μM ATP (Km level), read-out: ALK Activity (ALK Kinase Inhibition, IC50)
[6] = 1 μM ATP (Km level), read-out: cMet Activity (c-Met Kinase Inhibition, IC50)
[7] = 1 μM ATP (Km level), 30 ng/ml ALK, 37° C., 15 minutes, read-out: ALK Activity (ALK kinase inhibition, IC50 class)
[8] = 1 μM ATP (Km level), 10 ng/mL c-Met, read-out: cMet Activity (c-Met kinase inhibition, IC50 class)
[9] = ALK kinase inhibition, 1 μM ATP (Km level), read-out: ALK Activity
[10] = c-Met kinase inhibition, 1 μM ATP (Km level), read-out: cMet Activity

T1 sequence (Q9UM73 19-1620): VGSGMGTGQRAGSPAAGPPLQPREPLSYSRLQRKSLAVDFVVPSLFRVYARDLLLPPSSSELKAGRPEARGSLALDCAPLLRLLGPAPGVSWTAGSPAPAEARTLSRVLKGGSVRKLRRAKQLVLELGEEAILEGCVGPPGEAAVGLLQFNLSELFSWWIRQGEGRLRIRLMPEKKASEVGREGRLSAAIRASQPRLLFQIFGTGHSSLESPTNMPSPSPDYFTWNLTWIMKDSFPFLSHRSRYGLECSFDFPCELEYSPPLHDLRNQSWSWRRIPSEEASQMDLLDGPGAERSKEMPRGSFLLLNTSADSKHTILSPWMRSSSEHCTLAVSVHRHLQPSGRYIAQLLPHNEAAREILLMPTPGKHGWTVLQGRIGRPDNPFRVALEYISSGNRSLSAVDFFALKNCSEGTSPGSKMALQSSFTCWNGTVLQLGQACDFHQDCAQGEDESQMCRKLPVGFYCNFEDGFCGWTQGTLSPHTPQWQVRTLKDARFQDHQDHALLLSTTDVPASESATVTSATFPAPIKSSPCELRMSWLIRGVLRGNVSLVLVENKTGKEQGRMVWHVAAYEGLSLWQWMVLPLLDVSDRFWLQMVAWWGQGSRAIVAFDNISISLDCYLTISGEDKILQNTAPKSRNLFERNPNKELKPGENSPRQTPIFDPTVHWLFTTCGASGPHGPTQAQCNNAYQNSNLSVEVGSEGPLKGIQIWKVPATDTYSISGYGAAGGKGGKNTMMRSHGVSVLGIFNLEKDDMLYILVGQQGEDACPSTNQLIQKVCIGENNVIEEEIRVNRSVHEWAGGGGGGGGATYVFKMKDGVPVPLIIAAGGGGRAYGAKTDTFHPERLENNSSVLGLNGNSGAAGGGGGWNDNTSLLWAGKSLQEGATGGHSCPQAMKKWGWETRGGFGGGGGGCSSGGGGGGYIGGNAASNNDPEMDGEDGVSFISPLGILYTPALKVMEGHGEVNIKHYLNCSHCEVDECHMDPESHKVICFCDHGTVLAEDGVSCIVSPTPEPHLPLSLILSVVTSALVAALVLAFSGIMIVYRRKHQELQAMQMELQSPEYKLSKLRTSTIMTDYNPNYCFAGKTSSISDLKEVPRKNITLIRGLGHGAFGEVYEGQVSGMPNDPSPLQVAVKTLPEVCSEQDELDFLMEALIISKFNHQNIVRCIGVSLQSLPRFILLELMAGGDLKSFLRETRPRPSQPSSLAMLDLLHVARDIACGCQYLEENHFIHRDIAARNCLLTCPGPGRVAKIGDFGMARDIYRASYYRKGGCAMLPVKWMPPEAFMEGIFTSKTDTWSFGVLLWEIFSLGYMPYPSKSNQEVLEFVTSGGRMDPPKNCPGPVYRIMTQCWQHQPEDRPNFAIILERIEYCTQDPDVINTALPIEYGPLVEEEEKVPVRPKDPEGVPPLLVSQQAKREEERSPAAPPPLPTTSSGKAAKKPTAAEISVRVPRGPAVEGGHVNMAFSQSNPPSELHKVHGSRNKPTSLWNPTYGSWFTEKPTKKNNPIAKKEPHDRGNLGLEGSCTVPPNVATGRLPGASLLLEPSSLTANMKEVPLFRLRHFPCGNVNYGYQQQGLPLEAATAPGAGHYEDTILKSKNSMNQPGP

IC50 [1, 3]: < 100 nM | IC50 [2, 4]: 1000 to 10000 nM
Structure (SMILES): COCCN1CCc2ccc(Nc3ncc(Cl)c(Nc4ccc(N5CCOCC5)cc4OCCC#N)n3)cc2CC1 [Example 1689, 3-(2-{5-Chloro-2-[3-(2-methoxy-ethyl)-2,3,4,5-tetrahydro-1H-benzo[d]azepin-7-ylamino]-pyrimidin-4-ylamino}-5-morpholin-4-yl-phenoxy)-propionitrile]

IC50 [1, 5]: 1000 to 10000 nM | IC50 [2, 6]: 1000 to 10000 nM
Structure (SMILES): Cc1ccc(-c2ccccc2Nc2nc(Nc3ccc4c(c3)CCCC(=O)N4C)ncc2Cl)nc1 [Example 1004, 7-{5-Chloro-4-[2-(5-methyl-pyridin-2-yl)-phenylamino]-pyrimidin-2-ylamino}-1-methyl-1,3,4,5-tetrahydro-benzo[b]azepin-2-one]

IC50 [1, 3]: 100 to 1000 nM | IC50 [2, 4]: 100 to 1000 nM
Structure (SMILES): COCCOc1cccc(F)c1Nc1nc(Nc2ccc3c(c2)NC(=O)CCC3)ncc1Cl [Example 1695, 8-{5-Chloro-4-[2-fluoro-6-(2-methoxy-ethoxy)-phenylamino]-pyrimidin-2-ylamino}-1,3,4,5-tetrahydro-benzo[b]azepin-2-one]

IC50 [1, 5]: 1000 to 10000 nM | IC50 [2, 6]: > 10000 nM
Structure (SMILES): CCN1C(=O)CCCc2c1ccc(Nc1ncc(Cl)c(Nc3ccc(OC)cc3C(=O)OC(C)C)n1)c2OC [Example 608, 2-[5-Chloro-2-(1-ethyl-6-methoxy-2-oxo-2,3,4,5-tetrahydro-1H-benzo[b]azepin-7-ylamino)-pyrimidin-4-ylamino]-5-methoxy-benzoic acid isopropyl ester]

IC50 [1, 3]: 1000 to 10000 nM | IC50 [2, 4]: 100 to 1000 nM
Structure (SMILES): CCNc1nnc(-c2ccccc2Nc2nc(Nc3ccc4c(c3)CCOC(=O)N4C)ncc2Cl)o1 [Example 1783, 2-{5-Chloro-4-[2-(5-ethylamino-[1,3,4]oxadiazol-2-yl)-phenylamino]-pyrimidin-2-ylamino}-5-methyl-8,9-dihydro-5H-7-oxa-5-aza-benzocyclohepten-6-one]

IC50 [1, 7]: < 100 nM | IC50 [2, 8]: > 10000 nM
Structure (SMILES): CCN1C(=O)C(N)CCc2c1ccc(Nc1ncc(Cl)c(Nc3ccc(N(C)C)cc3OC)n1)c2OC (stereo not drawn) [Example 1343, 3-Amino-7-[5-chloro-4-(4-dimethylamino-2-methoxy-phenylamino)-pyrimidin-2-ylamino]-1-ethyl-6-methoxy-1,3,4,5-tetrahydro-benzo[b]azepin-2-one]

IC50 [1, 3]: 1000 to 10000 nM | IC50 [2, 4]: 1000 to 10000 nM
Structure (SMILES): CNC(=O)c1sc(C(C)(C)C)cc1Nc1nc(Nc2ccc3c(c2)CCOC(=O)N3C)ncc1Cl [Example 1761, 5-tert-Butyl-3-[5-chloro-2-(5-methyl-6-oxo-5,6,8,9-tetrahydro-7-oxa-5-aza-benzocyclohepten-2-ylamino)-pyrimidin-4-ylamino]-thiophene-2-carboxylic acid methylamide]

IC50 [1, 7]: < 100 nM | IC50 [2, 8]: 100 to 1000 nM
Structure (SMILES): CNC(=O)c1cc(N(C)C)ccc1Nc1nc(Nc2ccc3c(c2)CCN(CCOC)CC3)ncc1Cl [Example 1413, 2-{5-Chloro-2-[3-(2-methoxy-ethyl)-2,3,4,5-tetrahydro-1H-benzo[d]azepin-7-ylamino]-pyrimidin-4-ylamino}-5-dimethylamino-N-methyl-benzamide]

IC50 [1, 5]: < 100 nM | IC50 [2, 6]: < 100 nM
Structure (SMILES): CN(C)S(=O)(=O)c1ccccc1Nc1nc(Nc2ccc3c(c2)CCN(CC2COCCO2)CC3)ncc1Cl (stereo not drawn) [Example 641, 2-[5-Chloro-2-(3-[1,4]dioxan-2-ylmethyl-2,3,4,5-tetrahydro-1H-benzo[d]azepin-7-ylamino)-pyrimidin-4-ylamino]-N,N-dimethyl-benzenesulfonamide]

IC50 [1, 9]: < 100 nM | IC50 [2, 10]: > 10000 nM
Structure (SMILES): CCN1C(=O)CCCc2c1ccc(Nc1ncc(Cl)c(NC3C4CCC(C4)C3C(N)=O)n1)c2OC (stereo not drawn) [Example 129, (2-exo, 3-exo)-3-[5-Chloro-2-(1-ethyl-6-methoxy-2-oxo-2,3,4,5-tetrahydro-1H-benzo[b]azepin-7-ylamino)-pyrimidin-4-ylamino]-bicyclo[2.2.1]heptane-2-carboxylic acid amide]

IC50 [1, 3]: < 100 nM | IC50 [2, 4]: 1000 to 10000 nM
Structure (SMILES): COc1cc2c(cc1Nc1ncc(Cl)c(Nc3ccccc3S(=O)(=O)N(C)C)n1)CCN(CC(C)O)CC2 (stereo not drawn) [Example 1547, 2-{5-Chloro-2-[3-(2-hydroxy-propyl)-8-methoxy-2,3,4,5-tetrahydro-1H-3-benzazepin-7-ylamino]-pyrimidin-4-ylamino}-N,N-dimethyl-benzenesulfonamide]

IC50 [1, 3]: 100 to 1000 nM | IC50 [2, 4]: 100 to 1000 nM
Structure (SMILES): CNC(=O)c1cccc(F)c1Nc1nc(Nc2ccc3c(c2)N(C(=O)CN2CCCC2)CCCC3(C)C)ncc1Cl [Example 1603, 2-{5-Chloro-2-[5,5-dimethyl-1-(2-pyrrolidin-1-yl-acetyl)-2,3,4,5-tetrahydro-1H-benzo[b]azepin-8-ylamino]-pyrimidin-4-ylamino}-3-fluoro-N-methyl-benzamide]

IC50 [1, 5]: 100 to 1000 nM | IC50 [2, 6]: 1000 to 10000 nM
Structure (SMILES): COCCN1CCc2ccc(Nc3ncc(Cl)c(Nc4ccccc4-c4nccn4CCOC)n3)cc2CC1 [Example 981, 5-Chloro-N*4*-{2-[1-(2-methoxy-ethyl)-1H-imidazol-2-yl]-phenyl}-N*2*-[3-(2-methoxy-ethyl)-2,3,4,5-tetrahydro-1H-benzo[d]azepin-7-yl]-pyrimidine-2,4-diamine]

IC50 [1, 9]: < 100 nM | IC50 [2, 10]: 100 to 1000 nM
Structure (SMILES): Cn1ccnc1-c1ccccc1Nc1nc(Nc2ccc3c(c2)CCC(=O)CC3)ncc1Cl [Example 217, 2-{5-Chloro-4-[2-(1-methyl-1H-imidazol-2-yl)-phenylamino]-pyrimidin-2-ylamino}-5,6,8,9-tetrahydro-benzocyclohepten-7-one]

The remaining lines, values behind:

Structure (SMILES): COc1c(Nc2ncc(Cl)c(Nc3ccccc3S(=O)(=O)N(C)C)n2)ccc2c1CCC(N1CCOCC1)CC2 (stereo not drawn) [Example 889, 2-[5-Chloro-2-(1-methoxy-7-morpholin-4-yl-6,7,8,9-tetrahydro-5H-benzocyclohepten-2-ylamino)-pyrimidin-4-ylamino]-N,N-dimethyl-benzenesulfonamide]
IC50 [1, 5]: < 100 nM | IC50 [2, 6]: 1000 to 10000 nM

Structure (SMILES): COc1cc2c(cc1Nc1ncc(Cl)c(Nc3ccc(N4CCOCC4)cc3OC)n1)CCN(CC(=O)OC(C)C)CC2 [Example 800, {7-[5-Chloro-4-(2-methoxy-4-morpholin-4-yl-phenylamino)-pyrimidin-2-ylamino]-8-methoxy-1,2,4,5-tetrahydro-benzo[d]azepin-3-yl}-acetic acid isopropyl ester]
IC50 [1, 5]: < 100 nM | IC50 [2, 6]: > 10000 nM

Structure (SMILES): CNCc1ccccc1Nc1nc(Nc2ccc3c(c2)CN(C)C(=O)CC3)ncc1Cl [Example 1808, 8-[5-Chloro-4-(2-methylaminomethyl-phenylamino)-pyrimidin-2-ylamino]-2-methyl-1,2,4,5-tetrahydro-benzo[c]azepin-3-one]
IC50 [1, 3]: 1000 to 10000 nM | IC50 [2, 4]: < 100 nM

Structure (SMILES): COCCN1CCc2ccc(Nc3ncc(Cl)c(Nc4ccc(N5CCN(C(C)C)CC5)c5c4C(=O)N(C)C5)n3)cc2CC1 [Example 950, 7-{5-Chloro-2-[3-(2-methoxy-ethyl)-2,3,4,5-tetrahydro-1H-3-benzazepin-7-ylamino]-pyrimidin-4-ylamino}-4-(4-isopropyl-piperazin-1-yl)-2-methyl-2,3-dihydro-isoindol-1-one]
IC50 [1, 5]: < 100 nM | IC50 [2, 6]: 100 to 1000 nM

Structure (SMILES): CCN1C(=O)CCC(C)(C)c2ccc(Nc3ncc(Cl)c(Nc4c(F)cccc4S(=O)(=O)C(C)C)n3)cc21 [Example 1252, 8-{5-Chloro-4-[2-fluoro-6-(propane-2-sulfonyl)-phenylamino]-pyrimidin-2-ylamino}-1-ethyl-5,5-dimethyl-1,3,4,5-tetrahydro-1-benzazepin-2-one]
IC50 [1, 7]: < 100 nM | IC50 [2, 8]: 1000 to 10000 nM

Structure (SMILES): COc1c(Nc2ncc(Cl)c(Nc3ccccc3S(=O)(=O)N3CC[C@@H](O)C3)n2)ccc2c1CCCC(NCCO)C2 (stereo partly drawn) [Example 962, (R)-1-(2-{5-Chloro-2-[6-(2-hydroxy-ethylamino)-1-methoxy-6,7,8,9-tetrahydro-5H-benzocyclohepten-2-ylamino]-pyrimidin-4-ylamino}-benzenesulfonyl)-pyrrolidin-3-ol]
IC50 [1, 5]: < 100 nM | IC50 [2, 6]: > 10000 nM

Structure (SMILES): COCCN1CCc2ccc(Nc3ncc(Cl)c(Nc4ccccc4C(=O)NCCN(C)C)n3)cc2CC1 [Example 1397, {5-Chloro-2-[3-(2-methoxy-ethyl)-2,3,4,5-tetrahydro-1H-benzo[d]azepin-7-ylamino]-pyrimidin-4-ylamino}-N-(2-dimethylamino-ethyl)-benzamide]
IC50 [1, 7]: 100 to 1000 nM | IC50 [2, 8]: 100 to 1000 nM

Structure (SMILES): COCCN1CCc2ccc(Nc3ncc(Cl)c(Nc4ccccc4-c4nnc(C)s4)n3)cc2CC1 [Example 974, 5-Chloro-N*2*-[3-(2-methoxy-ethyl)-2,3,4,5-tetrahydro-1H-benzo[d]azepin-7-yl]-N*4*-[2-(5-methyl-[1,3,4]thiadiazol-2-yl)-phenyl]-pyrimidine-2,4-diamine]
IC50 [1, 5]: 100 to 1000 nM | IC50 [2, 6]: 100 to 1000 nM

Structure (SMILES): Cn1ccnc1-c1ccccc1Nc1nc(Nc2ccc3c(c2)C(C)(C)CCC(=O)N3)ncc1Cl [Example 397, 7-{5-Chloro-4-[2-(1-methyl-1H-imidazol-2-yl)-phenylamino]-pyrimidin-2-ylamino}-5,5-dimethyl-1,3,4,5-tetrahydro-benzo[b]azepin-2-one]
IC50 [1, 9]: < 100 nM | IC50 [2, 10]: 100 to 1000 nM

Structure (SMILES): CCNC(=O)c1ccccc1Nc1nc(Nc2cc3c(cc2OC)CC(=O)N(CC)CC3)ncc1Cl [Example 255, 2-[5-Chloro-2-(3-ethyl-8-methoxy-2-oxo-2,3,4,5-tetrahydro-1H-benzo[d]azepin-7-ylamino)-pyrimidin-4-ylamino]-N-ethyl-benzamide]
IC50 [1, 9]: < 100 nM | IC50 [2, 10]: > 10000 nM
